{"source": "patent US20110015191A1", "about": "“ORGANIC COMPOUNDS” (SANDOZ AG, priority 2007, published 2011)", "key": {"[1]": {"conditions": "heated to 230° C. under a nitrogen atmosphere; cited from earlier work"}, "[2]": {"conditions": "cited from earlier work"}, "[3]": {"assay": "Conversion of the methanol solvate on drying", "assay_type": "physicochemical", "excerpt": "In another embodiment the invention relates to a novel methanol solvate of Aprepitant. The methanol solvate is useful for the purification of Aprepitant."}}}
{"smiles": "C[C@@H](O[C@H]1OCCN(Cc2nc(=O)[nH][nH]2)[C@H]1c1ccc(F)cc1)c1cc(C(F)(F)F)cc(C(F)(F)F)c1", "note": "[Form II of Aprepitant, 2-(R)-(1-(R)-(3,5)-bis(trifluoromethyl)-phenyl)ethoxy)-3-(S)-(4-fluoro)phenyl-4-(3-(5-oxo-1H,4H-1,2,4-triazolo)methylmorpholine]", "values": [{"measurement": "conversion of polymorphic form on heating", "setting": "[1]", "result": "converts to form I"}, {"measurement": "solubility in a methanol/water mixture (2:1)", "setting": "[2]", "result": "about 1.3±0.2 mg/ml"}]}
{"smiles": "CO.C[C@@H](O[C@H]1OCCN(Cc2nc(=O)[nH][nH]2)[C@H]1c1ccc(F)cc1)c1cc(C(F)(F)F)cc(C(F)(F)F)c1", "note": "[methanol solvate, Methanol solvate of 2-(R)-(1-(R)-(3,5)-bis(trifluoromethyl)-phenyl)ethoxy)-3-(S)-(4-fluoro)phenyl-4-(3-(5-oxo-1H,4H-1,2,4-triazolo)methylmorpholine]", "values": [{"measurement": "conversion of solid form on drying", "setting": "[3]", "result": "converts to form I of Aprepitant on drying"}]}
{"smiles": "C[C@@H](O[C@H]1OCCN(Cc2nc(=O)[nH][nH]2)[C@H]1c1ccc(F)cc1)c1cc(C(F)(F)F)cc(C(F)(F)F)c1", "note": "[form I, 2-(R)-(1-(R)-(3,5)-bis(trifluoromethyl)-phenyl)ethoxy)-3-(S)-(4-fluoro)phenyl-4-(3-(5-oxo-1H,4H-1,2,4-triazolo)methylmorpholine]", "values": [{"measurement": "solubility in a methanol/water mixture (2:1)", "setting": "[2]", "result": "0.9 ± 0.1", "unit": "mg/mL"}]}
